Source: patent US20260224563A1, “CRYSTALLINE FORMS OF 6-(3-((5-CHLORO-2-METHOXYPYRIDINE)-3-SULFONAMIDO)-2,6-DIFLUOROPHENYL)-N-METHYLIMIDAZO[1,5-A]PYRAZINE-1-CARBOXAMIDE AND METHODS FOR USING THE SAME” (HIBERCELL, INC., priority 2023, published 2026)
Converted amounts (≈) assume the structure as drawn. Structures can show the parent of a compound that is named as a salt. Where two headings read alike, the source gives them in different places.

Key:
Assay type in all cases: physicochemical
[1] = Water activity study of the crystalline potassium salt forms (acetone/water suspension, XRPD); settings: water/acetone
Protocol: A water activity study of the potassium salt forms was conducted in two groups: (i) Form I and Form III of the potassium salt, and (ii) Form II and Form III of the potassium salt.
Each suspension was shaken at 700 rpm in a shaker at 25° C., 35° C., 45° C., and 50° C., and the sample was analyzed by XRPD.

[2] = Solubility testing in organic solvents and water (visual, room temperature)
[3] = Solubility in simulated biological fluid (FaSSGF and FaSSIF) at 37° C., HPLC; pH of filtrate, XRPD of filter cake; settings: 0.5-hour mark
Protocol: (§1) Approximately between 15 mg and 24 mg of sample was suspended in 5 mL or 8 mL of FaSSGF or FaSSIF, respectively. The resulting suspension was shaken at 700 rpm with a QQMSC-100 shaker at 37° C. The suspension was sampled and filtered at certain time intervals, which was achieved by sampling 1000 μL of each suspension which was then filtered and diluted, diluting the resulting filtrate for HPLC analysis to assess solubility. The pH of the filtrate was measured, and the filter cake was analyzed by XRPD.
as §1, with “Approximately” for “Approximately between”, “mg to” for “mg and”, “5” for “5 mL”, “suspension” for “suspension which”, “was” for “was then”
Approximately 15 mg to 24 mg of sample was suspended in 5 or 8 mL of FaSSGF or FaSSIF, respectively. The resulting suspension was shaken at 700 rpm with a QQMSC-100 shaker at 37° C. The suspension was sampled and filtered in certain time interval, which was achieved by sampling 1000 μL of each suspension was filtered and diluted, diluting the resulting filtrate for HPLC analysis to assess solubility. The pH of the filtrate was measured, and the filter cake was analyzed by XRPD.

[4] = Solid-state stability (60° C./closed and 40° C./75% relative humidity open, up to seven days; HPLC purity, XRPD)
Protocol: HPLC method for stability and solubility testing is listed below.
• Column: Ascentis® Express C18 4.6*150 mm*2.7 μm • Mobile Phase A: 0.05% trifluoroacetic acid in water • Mobile Phase B: Methanol • Gradient (T/B %): 0/10, 10/100, 13.5/10, 15/10 • Column Temperature: 40° C. • Detector: DAD; 220 nm • Flow rate: 1.0 mL/min • Injection volume: 1 μL • Concentration: 1 mg/mL • Run time: 15 minutes • Diluent: Methanol:Water 9:1 (v/v)
The solid-state stability of Form III of the potassium salt was performed using the following protocol: • (1) A sample of Form III of the potassium salt was placed at 60° C./closed and 40° C./75% relative humidity (open) conditions for up to seven days. At the onset of the test (day 0) and day 7 of the test, the sample was dissolved in a diluent to prepare a 1 mg/mL solution for HPLC purity analysis. The solid sample was analyzed by XRPD to assess the crystal form of each solid at day 7. […] The XRPD data confirmed the physicochemical stability of Form III of the potassium salt under both closed and open conditions. […]

[5] = Dynamic vapor sorption (DVS); settings: for DVS weight gain: 25° C.
Protocol: Moisture sorption/desorption data was collected on a Vsorp Dynamic Moisture Sorption Analyzer (ProUmid GmbH & Co. KG, Germany). The sample was placed into a tared sample chamber and automatically weighed.
• Equilibrium Condition: 0.01%/40 min • Time between weighing cycles: 10 minutes • Minimum time per climate cycle: 50 minutes • Maximum time per climate cycle: 2.0 hour • Balanced condition: 25° C. at 60% […] for 4 hours • Sample temperature: 25° C. • Adsorption: 70, 80, 90 • Desorption: 80, 70, 60, 50, 40, 30, 20, 10, 0 • Adsorption: 10, 20, 30, 40, 50, 60

## CNC(=O)c1ncn2cc(-c3c(F)ccc([N-]S(=O)(=O)c4cc(Cl)cnc4OC)c3F)ncc12.[K+] [Forms I and III of the Potassium Salt]
[1]; 0% water without molecular sieves, KF 0.189 wt. %, 25° C.
  Crystalline form by XRPD: Form III
[1]; 0% water without molecular sieves, KF 0.189 wt. %, 35° C.
  Crystalline form by XRPD: Form III
[1]; 0% water without molecular sieves, KF 0.189 wt. %, 45° C.
  Crystalline form by XRPD: Form III
[1]; 0% water without molecular sieves, KF 0.189 wt. %, 50° C.
  Crystalline form by XRPD: Form III
[1]; 10 V% water, KF 14.9 wt. %, 25° C.
  Crystalline form by XRPD: Form III
[1]; 10 V% water, KF 14.9 wt. %, 35° C.
  Crystalline form by XRPD: Form III
[1]; 10 V% water, KF 14.9 wt. %, 45° C.
  Crystalline form by XRPD: Form III
[1]; 10 V% water, KF 14.9 wt. %, 50° C.
  Crystalline form by XRPD: Form III
[1]; 25 V% water, KF 34.5 wt. %, 25° C.
  Crystalline form by XRPD: Form III
[1]; 25 V% water, KF 34.5 wt. %, 35° C.
  Crystalline form by XRPD: Form III
[1]; 25 V% water, KF 34.5 wt. %, 45° C.
  Crystalline form by XRPD: Form III
[1]; 25 V% water, KF 34.5 wt. %, 50° C.
  Crystalline form by XRPD: Form III
[1]; 50 V% water, KF 60.1 wt. %, 25° C.
  Crystalline form by XRPD: Form III
[1]; 50 V% water, KF 60.1 wt. %, 35° C.
  Crystalline form by XRPD: Form III
[1]; 50 V% water, KF 60.1 wt. %, 45° C.
  Crystalline form by XRPD: Form III
[1]; 50 V% water, KF 60.1 wt. %, 50° C.
  Crystalline form by XRPD: Form III
[1]; 75 V% water, KF 90.5 wt. %, 25° C.
  Crystalline form by XRPD: Form III
[1]; 75 V% water, KF 90.5 wt. %, 35° C.
  Crystalline form by XRPD: Form III
[1]; 75 V% water, KF 90.5 wt. %, 45° C.
  Crystalline form by XRPD: Form III
[1]; 75 V% water, KF 90.5 wt. %, 50° C.
  Crystalline form by XRPD: Form III

## CNC(=O)c1ncn2cc(-c3c(F)ccc(NS(=O)(=O)c4cc(Cl)cnc4OC)c3F)ncc12 [Free acid Form I, 6-(3-((5-chloro-2-methoxypyridine)-3-sulfonamido)-2,6-difluorophenyl)-N-methylimidazo[1,5-a]pyrazine-1-carboxamide]
[2]; Acetone, listed as Form I of the Free Acid
  Solubility: ~10000 µg/mL (≈ 19700 µM)
[2]; DCM, listed as Form I of the Free Acid
  Solubility: ~8000 µg/mL (≈ 15700 µM)
[2]; DMSO, listed as Form I of the Free Acid
  Solubility: >230000 µg/mL
[2]; EtOAc, listed as Form I of the Free Acid
  Solubility: ~2000 µg/mL (≈ 3930 µM)
[2]; EtOH, listed as Form I of the Free Acid
  Solubility: ~1000 µg/mL (≈ 1970 µM)
[2]; H2O (water), listed as Form I of the Free Acid
  Solubility: <100 µg/mL
[2]; Heptane
  Solubility: <100 µg/mL
[2]; IPA, listed as Form I of the Free Acid
  Solubility: ~400 µg/mL (≈ 786 µM)
[2]; IPAc, listed as Form I of the Free Acid
  Solubility: ~800 µg/mL (≈ 1570 µM)
[2]; MEK, listed as Form I of the Free Acid
  Solubility: ~6000 µg/mL (≈ 11800 µM)
[2]; MTBE
  Solubility: <100 µg/mL
[2]; MeCN, listed as Form I of the Free Acid
  Solubility: ~5000 µg/mL (≈ 9830 µM)
[2]; MeOH, listed as Form I of the Free Acid
  Solubility: ~700 µg/mL (≈ 1380 µM)
[2]; NBA, 24 °C, organic solvent or mixture, thermodynamic from solid, NBA, read-out: Solubility
  Solubility: ~700 µg/mL (≈ 1380 µM)
[2]; THF, listed as Form I of the Free Acid
  Solubility: ~35000 µg/mL (≈ 68800 µM)
[2]; toluene, 24 °C, organic solvent or mixture, thermodynamic from solid, Toluene, read-out: Solubility
  Solubility: < 100 µg/mL

## CNC(=O)c1ncn2cc(-c3c(F)ccc(NS(=O)(=O)c4cc(Cl)cnc4OC)c3F)ncc12 [Sodium salt Form III, 6-(3-((5-chloro-2-methoxypyridine)-3-sulfonamido)-2,6-difluorophenyl)-N-methylimidazo[1,5-a]pyrazine-1-carboxamide]
[3]; FaSSGF
  times more soluble than the free acid (Form II): about 230 times
[3]; FaSSIF
  times more soluble than the free acid (Form II): about 100 times
[4]; 0 day
  Purity (Area %) 220 nm: 99.87 Area %
[4]; 40° C./75% RH (open), 7 days
  Purity (Area %) 220 nm: 99.87 Area %
[4]; 60° C./closed, 7 days
  Purity (Area %) 220 nm: 99.85 Area %
[4]; both closed (60° C.) and open (40° C./75% RH) conditions for seven days
  physical and chemical stability: maintained physical and chemical stability
[5]; 0 to 30% relative humidity
  DVS weight gain: 2.6%
[5]; 0 to 30% relative humidity, listed as Form III of the sodium salt
  DVS weight gain: around 2.6%
[5]; 0 to 80% relative humidity
  DVS weight gain: 3.3%
[5]; 0 to 90% relative humidity
  DVS weight gain: 4.7%
[5]; 60 to 80% relative humidity, listed as Form III of the sodium salt
  DVS weight gain: around 0.7%
[5]; 80 to 90% relative humidity
  DVS weight gain: 1.4%
[5]; listed as Form III of the sodium salt
  XRPD pattern after DVS testing: did not change
